{"source": "ChEMBL document CHEMBL5338769", "about": "“Discovery of Norisoboldine Analogue III11 as a Novel and Potent Aryl Hydrocarbon Receptor Agonist for the Treatment of Ulcerative Colitis” (J Med Chem, 2023)", "key": {"EL4": {"system": "EL4", "experiment": "Cytotoxicity against mouse EL4 cells assessed as inhibition of cell proliferation incubated for 72 hrs by MTT assay", "type": "functional, cell-based", "conditions": "for IC50: EL4, 72 h"}, "[1]": {"molecular_target": "T1, Aryl hydrocarbon receptor (Mus musculus, UniProt P30561)", "T1 sequence (P30561 whole entry)": "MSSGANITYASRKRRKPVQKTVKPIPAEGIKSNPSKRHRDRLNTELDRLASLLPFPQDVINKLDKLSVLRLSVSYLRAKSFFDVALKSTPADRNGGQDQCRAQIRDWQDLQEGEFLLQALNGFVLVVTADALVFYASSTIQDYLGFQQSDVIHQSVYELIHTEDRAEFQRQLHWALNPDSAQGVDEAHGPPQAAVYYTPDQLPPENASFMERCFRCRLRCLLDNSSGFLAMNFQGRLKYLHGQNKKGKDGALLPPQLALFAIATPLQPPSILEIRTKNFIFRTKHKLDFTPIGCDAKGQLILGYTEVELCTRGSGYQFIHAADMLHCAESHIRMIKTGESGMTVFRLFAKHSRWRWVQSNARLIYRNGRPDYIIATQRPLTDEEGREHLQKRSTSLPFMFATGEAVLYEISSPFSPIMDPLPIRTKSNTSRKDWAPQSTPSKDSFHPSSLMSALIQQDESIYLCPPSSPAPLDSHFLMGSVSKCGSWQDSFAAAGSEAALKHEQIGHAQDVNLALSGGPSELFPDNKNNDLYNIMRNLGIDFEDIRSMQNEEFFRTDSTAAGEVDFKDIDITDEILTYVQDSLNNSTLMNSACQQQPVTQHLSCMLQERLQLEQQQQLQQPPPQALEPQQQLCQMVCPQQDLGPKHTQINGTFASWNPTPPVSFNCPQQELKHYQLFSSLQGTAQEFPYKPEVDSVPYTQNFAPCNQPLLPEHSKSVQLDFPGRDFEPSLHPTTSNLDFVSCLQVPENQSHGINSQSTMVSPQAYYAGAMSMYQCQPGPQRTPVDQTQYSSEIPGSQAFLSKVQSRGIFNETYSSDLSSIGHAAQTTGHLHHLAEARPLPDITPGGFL", "experiment": "Activation of AhR transcription in C57BL/6 mouse naive T cells assessed as increase in CYP1A1 mRNA expression at 3 uM measured after 72 hrs by qRT-PCR analysis relative to control", "type": "cell-based", "conditions": "t cell"}, "[2]": {"molecular_target": "T1, Aryl hydrocarbon receptor", "experiment": "Activation of AhR transcription in C57BL/6 mouse naive T cells assessed as increase in CYP1A1 mRNA expression at 1 to 3 uM measured after 72 hrs by qRT-PCR analysis", "type": "cell-based", "conditions": "t cell, dose 1-3 µM"}, "[3]": {"molecular_target": "T1, Aryl hydrocarbon receptor", "experiment": "Activation of AhR transcription in C57BL/6 mouse naive T cells assessed as increase in CYP1A1 mRNA expression at 1 uM by qRT-PCR analysis", "type": "cell-based", "conditions": "t cell"}, "[4]": {"molecular_target": "T1, Aryl hydrocarbon receptor", "experiment": "Activation of AhR transcription in C57BL/6 mouse naive T cells assessed as increase in UGT1A1 mRNA expression at 1 to 3 uM by qRT-PCR analysis", "type": "cell-based", "conditions": "t cell, dose 1-3 µM"}, "[5]": {"molecular_target": "T1, Aryl hydrocarbon receptor", "experiment": "Activation of AhR transcription in C57BL/6 mouse naive T cells assessed as increase in CYP1B1 mRNA expression at 1 to 3 uM by qRT-PCR analysis", "type": "cell-based", "conditions": "t cell, dose 1-3 µM"}, "[6]": {"molecular_target": "T1, Aryl hydrocarbon receptor", "experiment": "Activation of AhR transcription in C57BL/6 mouse naive T cells assessed as increase in AhRR mRNA expression at 1 to 3 uM by qRT-PCR analysis", "type": "cell-based", "conditions": "t cell, dose 1-3 µM"}, "[7]": {"molecular_target": "T1, Aryl hydrocarbon receptor", "experiment": "Activation of AhR transcription in C57BL/6 mouse naive T cells assessed as increase in CYP1A1 mRNA expression at 1 to 3 uM by qRT-PCR analysis", "type": "cell-based", "conditions": "t cell, dose 1-3 µM"}}, "note": "Active and inactive are the calls of the source. The rule behind the calls is not given here.", "data": [{"smiles": "COc1cc2c3c(c1OC)-c1ccc(O)cc1CC3NCC2", "note": "(configuration not stated)", "values": [{"measurement": "IC50", "setting": "EL4", "result": 64.4, "unit": "µM"}, {"measurement": "Activity", "setting": "[1]", "result": 150.7, "unit": "%"}]}, {"smiles": "COc1ccc2c(c1)CCN(C(=O)OCc1ccccc1)C2Cc1cc(OCc2ccccc2)ccc1Br", "note": "(configuration not stated)", "values": [{"measurement": "Activity", "setting": "[2]", "result": "Not Active"}]}, {"smiles": "COc1cccc(CCNC(=O)OCc2ccccc2)c1", "values": [{"measurement": "Activity", "setting": "[2]", "result": "Not Active"}]}, {"smiles": "COc1cc2c(cc1O)CC1NCCc3cc(OC)c(OC)c-2c31", "note": "(configuration not stated)", "values": [{"measurement": "Activity", "setting": "[3]", "result": "Active"}, {"measurement": "IC50", "setting": "EL4", "result": 48.4, "unit": "µM"}]}, {"smiles": "COc1ccc2c(c1)CC1NCCc3cc(OC)c(OC)c-2c31", "note": "(configuration not stated)", "values": [{"measurement": "IC50", "setting": "EL4", "result": 10.8, "unit": "µM"}, {"measurement": "Activity", "setting": "[1]", "result": 152.7, "unit": "%"}]}, {"smiles": "COc1cc2c(cc1O)-c1c(OC)c(OC)cc3c1C(C2)NCC3", "note": "(configuration not stated)", "values": [{"measurement": "Activity", "setting": "[4]", "result": "Not Active"}, {"measurement": "Activity", "setting": "[5]", "result": "Not Active"}, {"measurement": "IC50", "setting": "EL4", "result": 36.9, "unit": "µM"}, {"measurement": "Activity", "setting": "[6]", "result": "Not Active"}, {"measurement": "Activity", "setting": "[7]", "result": "Not Active"}]}, {"smiles": "COc1cc2c3c(c1OC)-c1ccccc1CC3NCC2", "note": "(configuration not stated) [NORNUCIFERINE]", "values": [{"measurement": "Activity", "setting": "[3]", "result": "Active"}, {"measurement": "IC50", "setting": "EL4", "result": 26.2, "unit": "µM"}]}, {"smiles": "Oc1ccc2c(c1)CC1NCCc3cccc-2c31", "note": "(configuration not stated)", "values": [{"measurement": "Activity", "setting": "EL4", "result": "inactive"}]}, {"smiles": "O=Cc1cc(OCc2ccccc2)ccc1Br", "values": [{"measurement": "Activity", "setting": "[2]", "result": "Not Active"}]}, {"smiles": "COc1cc2c(cc1OC)-c1c(OC)c(OC)cc3c1C(C2)NCC3", "note": "(configuration not stated)", "values": [{"measurement": "Activity", "setting": "[4]", "result": "Not Active"}, {"measurement": "Activity", "setting": "[5]", "result": "Not Active"}, {"measurement": "IC50", "setting": "EL4", "result": 13.9, "unit": "µM"}, {"measurement": "Activity", "setting": "[6]", "result": "Not Active"}, {"measurement": "Activity", "setting": "[7]", "result": "Not Active"}]}]}
